Columns and labels:
Puccinia recondita [1] = assay: Example B-7: Curative action against Puccinia recondita (brown rust) on wheat leaf segments; format: in vivo; settings: 0.02% active ingredient sprayed one day after inoculation, 8 days after inoculation; for inhibition at 0.02 % strength: Puccinia recondita, foliar, read-out: curative fungicidal activity (inhibition)
Procedure: Curative Action Against Puccinia recondita (Brown Rust) on Wheat Wheat leaf segments were placed on agar in multiwell plates (24-well format) and inoculated with a spore suspension of the fungus. One day after inoculation the leaf segments were sprayed with test solutions (0.02% active ingredient). After appropriate incubation the activity of a compound was assessed 8 days after inoculation as curative fungicidal activity.

Puccinia recondita [2] = assay: Example B-6: Protective action against Puccinia recondita (brown rust) on wheat leaf segments; format: in vivo; settings: foliar, 192 h, 0.02% active ingredient, 8 days after inoculation, read-out: preventive fungicidal activity (inhibition)
Procedure: (§1) Protective Action Against Puccinia recondita (Brown Rust) on Wheat Wheat leaf segments were placed on agar in multiwell plates (24-well format) and sprayed with test solutions (0.02% active ingredient). After drying, the leaf disks were inoculated with a spore suspension of the fungus. After appropriate incubation the activity of a compound was assessed 8 days after inoculation as preventive fungicidal activity.

Pyrenophora teres = assay: Example B-8: Action against Pyrenophora teres (net blotch) on barley leaf segments; format: in vivo; settings: foliar, 96 h, 0.02% active ingredient, 4 days after inoculation, read-out: preventive fungicidal activity (inhibition)
Procedure: as §1, with “Action” for “Protective Action”, “Pyrenophora teres (Net Blotch)” for “Puccinia recondita (Brown Rust)”, “Barley Barley” for “Wheat Wheat”, “4” for “8”

Septoria tritici = assay: Example B-3: Action against Septoria tritici, fungal growth assay; format: cell-based; settings: Zymoseptoria tritici; 0.002% active ingredient; PDB broth, 24° C., photometric after 72 hrs
Procedure: (§2) Action Against Septoria tritici—Fungal Growth Assay Conidia of the fungus from cryogenic storage were directly mixed into nutrient broth (PDB potato dextrose broth). After placing a (DMSO) solution of the test compounds (0.002% active ingredient) into a microtiter plate (96-well format) the nutrient broth containing the fungal spores was added. The test plates were incubated at 24° C. and the inhibition of growth was determined photometrically after 72 hrs. The activity of a compound was expressed as fungal growth inhibition (0=no growth inhibition, ratings of 80% to 99% mean good to very good inhibition, 100%=complete inhibition).

[3] = tested on: Mycosphaerella arachidis (Cercospora arachidicola); assay: Example B-2: Action against Mycosphaerella arachidis, fungal growth assay; format: cell-based; settings: 0.002% active ingredient, PDB broth, 24° C., photometric after 6-7 days
Procedure: as §2, with “Mycosphaerella arachidis (Early Leaf Spot of Groundnut; Cercospora arachidicola [fanamorph])—Fungal” for “Septoria tritici—Fungal”, “measured” for “determined”, “6-7 days.” for “72 hrs.”

Botrvtis cinerea = assay: Example B-1: Action against Botrytis cinerea, fungal growth assay; format: cell-based; settings: 0.002% active ingredient, PDB broth, 24° C., photometric after 3-4 days
Procedure: as §2, with “Action against Botrvtis cinerea—fungal growth assay” for “Action Against Septoria tritici—Fungal Growth Assay”, “storage was” for “storage were”, “was measured” for “was determined”, “after 3-4 days.” for “after 72 hrs.”

[4] = tested on: Erysiphe graminis f. sp. tritici; assay: Example B-5: Action against Erysiphe graminis f. sp. tritici (wheat powdery mildew), wheat leaf segments; format: in vivo; settings: Blumeria graminis, foliar, 168 h, 0.02% active ingredient, 7 days after inoculation, read-out: preventive fungicidal activity (inhibition)
Procedure: as §1, with “Action” for “Protective Action”, “Erysiphe graminis f. sp. tritici (Wheat Powdery Mildew)” for “Puccinia recondita (Brown Rust) on Wheat”, “7” for “8”

Structure (SMILES)	curative fungicidal activity (inhibition) (Puccinia recondita [1])	inhibition at 0.02 % strength (Puccinia recondita [2])	inhibition at 0.02 % strength (Pyrenophora teres)	melting point	inhibition at 0.002 % strength (Septoria tritici)	inhibition at 0.002 % strength [3]	inhibition at 0.002 % strength (Botrvtis cinerea)	inhibition at 0.02 % strength (Puccinia recondita [1])	inhibition at 0.02 % strength [4]
CON(C(=O)c1cn(C)nc1C(F)F)C(CF)c1ccc(Cl)cc1 (centres unmarked) [Compound 1.107]	50%								
CON(C(=O)c1cn(C)nc1C(F)F)C(C)c1cccc(-c2ccc(Cl)c(Cl)c2)c1 (centres unmarked) [Compound 1.020, 3-difluoromethyl-1-methyl-1H-pyrazole-4-carboxylic acid [1-(3′,4′-dichloro-biphenyl-3-yl)-ethyl]-methoxy-amide]		≥ 80%	≥ 80%	162 to 164 °C	≥ 80%	≥ 80%	≥ 80%		
CON(C(=O)c1cn(C)nc1C(F)F)C(C)c1cccc(I)c1 (centres unmarked) [Compound 1.014, 3-Difluoromethyl-1-methyl-1H-pyrazole-4-carboxylic acid [1-(3-iodo-phenyl)-ethyl]-methoxy-amide]		≥ 80%	≥ 80%	136 to 138 °C	≥ 80%	≥ 80%	≥ 80%	≥ 80%	≥ 80%
CON(Cc1ccc(Cl)cc1Cl)C(=O)c1cn(C)nc1C(F)F [Compound 1.091, 3-difluoromethyl-1-methyl-1H-pyrazole-4-carboxylic acid (2,4-dichlorobenzyl)-methoxy-amide]		≥ 80%	≥ 80%		≥ 80%	≥ 80%		50%	
CON(C(=O)c1cn(C)nc1C(F)F)C(C)c1ccc(I)cc1 (centres unmarked) [Compound 1.003, 3-difluoromethyl-1-methyl-1H-pyrazole-4-carboxylic acid [1-(4-iodo-phenyl)-ethyl]-methoxy-amide]		≥ 80%	≥ 80%	72 to 74 °C	≥ 80%	≥ 80%			≥ 80%
